Consider 30 molecules from publication PMC8961538, “N-Acylated and N-Alkylated 2-Aminobenzothiazoles Are Novel Agents That Suppress the Generation of Prostaglandin E2” (Biomolecules, 2022).

Where only a bound is given, the exact number is not on record here.

The subject of data set [1] is PGE2 generation in rat mesangial cells. The data set is described as follows: Suppression of IL-1β/forskolin-stimulated PGE2 generation in rat renal mesangial cells. The format is cell-based. The settings on record: for inhibition at 3 µM / IC50: Rattus norvegicus, Mesangial cell; for IC50: IL-1β plus forskolin, read-out: EC50 (μM), inhibition of PGE2 generation. Here is the method: Rat renal mesangial cells (clone MZ B1), isolated and characterized as previously described, were cultivated in RPMI 1640 medium supplemented with 10% fetal bovine serum; 10 mM 4-(2-hydroxyethyl)-1-piperazineethanesulfonic acid (HEPES), pH 7.4; 6 µg/mL of bovine insulin; 5 µg/mL of transferrin; 5 nM sodium selenite; 100 units/mL of penicillin; and 100 µg/mL of streptomycin. The cells were incubated for 4 h in Dulbecco’s modified Eagle’s medium (DMEM) containing 10 mM HEPES, pH 7.4, and 0.1 mg/mL of fatty acid-free bovine serum albumin (BSA), prior to stimulation.
Confluent mesangial cells in 24-well plates were pretreated for 20 min with varying concentrations of inhibitors and then stimulated for 24 h in a total volume of 400 µL of DMEM containing 0.1 mg/mL of BSA, in the absence or presence of 1 nM interleukin 1β (IL-1) plus 5 μM forskolin (Fk). Thereafter, the supernatants were collected and centrifuged for 5 min at 1000× g. The PGE2 in the supernatant was quantified using an enzyme-linked immunoassay (Enzo Life Sciences, Lörrach, Germany) following the manufacturer’s recommendations.
Statistical analysis of the data was performed using one-way analysis of variance (ANOVA) followed by a Bonferroni’s post hoc test for multiple comparisons (GraphPad Prism 8.4.3., San Diego, CA, USA). The half maximal effective concentrations (EC50) of the inhibitors were calculated using the same software.

Setting [2] is: 24 h, 3 μM, 1 nM IL-1β plus 5 μM forskolin.

What is called inhibition is the change of the read-out against control, counted positive when it falls. Broadly, the melting point is the temperature, or range, at which the solid turns liquid. `c1ccc2cc(OCCNc3nc4ccccc4o3)ccc2c1` [Compound 23c, N-(2-(Naphthalen-2-yloxy)Ethyl)Benzo[d]Oxazol-2-Amine]: the melting point fell in the range of 152 to 153 °C. Also, the inhibition at 3 µM in data set [1] (setting [2]) was above 80%. Moreover, the IC50 in data set [1] (0.1 to 3 µM, 24 h) is 0.894 µM.
On to `COc1ccc(/C=C/C(=O)Nc2nc3ccccc3s2)cc1` [Compound 9b, (E)-N-(Benzo[d]Thiazol-2-yl)-3-(4-Methoxyphenyl)Acrylamide], for which the melting point lay within 252 to 254 °C. In addition, the inhibition at 3 µM in data set [1] (setting [2]) is 25%.
In the same order, the values of `O=C(CCc1ccc2ccccc2c1)Nc1nc2ccccc2[nH]1` [Compound 5e, N-(1H-Benzo[d]Imidazol-2-yl)-3-(Naphthalen-2-yl)Propanamide] are 47 to 49 °C and 29%.
Taken in the same sequence, the figures for `O=C(COc1ccc2ccccc2c1)Nc1nc2ccccc2s1` [Compound 7, N-(Benzo[d]Thiazol-2-yl)-2-(Naphthalen-2-yloxy)Acetamide] were 153 to 155 °C and 41%.
In turn, `COC(CCc1ccc2ccccc2c1)Nc1nc2ccc(OC(F)(F)F)cc2s1` (centres unmarked) [Compound 18g, N-(1-Methoxy-3-(Naphthalen-2-yl)Propyl)-6-(Trifluoromethoxy)Benzo[d]Thiazol-2-Amine] showed a melting point of 78 to 80 °C.
In turn, `c1ccc(CCCNc2nccs2)cc1` [Compound 19f, N-(3-Phenylpropyl)Thiazol-2-Amine] showed a melting point of 83 to 84 °C. The inhibition at 3 µM in data set [1] (setting [2]) stood at 20%.
`O=C(/C=C/c1ccc2ccccc2c1)Nc1nc2ccccc2s1` [Compound 9a, (E)-N-(Benzo[d]Thiazol-2-yl)-3-(Naphthalen-2-yl)Acrylamide] came in with a melting point of 228 to 230 °C. For the same molecule, the inhibition at 3 µM in data set [1] (setting [2]) was found to be 28%.
`O=C(CCCc1ccc2ccccc2c1)Nc1nc2ccccc2s1` [Compound 5a, N-(Benzo[d]Thiazol-2-yl)-4-(Naphthalen-2-yl)Butanamide] had a melting point of 53 to 55 °C. The inhibition at 3 µM in data set [1] (setting [2]) was found to be 50%.
On to `COC(CCc1cccc2ccccc12)Nc1nc2ccc(OC(F)(F)F)cc2s1` (centres unmarked) [Compound 18h, N-(1-Methoxy-3-(Naphthalen-1-yl)Propyl)-6-(Trifluoromethoxy)Benzo[d]Thiazol-2-Amine], for which the melting point was 100 to 102 °C.
For the molecule `COc1ccc(CCC(Nc2nc3ccccc3s2)OC)cc1` (centres unmarked) [Compound 18c, N-(1-Methoxy-3-(4-Methoxyphenyl)Propyl)Benzo[d]Thiazol-2-Amine], the inhibition at 3 µM in data set [1] (setting [2]) was found to be 0%.
Molecule `COc1ccc(CCCNc2nc3ccccc3s2)cc1` [Compound 19c, N-(3-(4-Methoxyphenyl)Propyl)Benzo[d]Thiazol-2-Amine] yielded a melting point of 104 to 106 °C. In data set [1] (setting [2]), the inhibition at 3 µM stood at 62%.
Molecule `c1ccc2c(CCCNc3nccs3)cccc2c1` [Compound 19e, N-(3-(Naphthalen-1-yl)Propyl)Thiazol-2-Amine] yielded a melting point of 94 to 97 °C. Further, the “Concentration dependence of effect on PGE2 generation” value in data set [1] (0.1 to 3 µM, low concentrations enhanced PGE2, 1 µM and 3 µM reduced it) was “biphasic effect”. Besides, in data set [1] (setting [2]), the inhibition at 3 µM is above 80%.
Molecule `c1ccc2c(CCCNc3nc4ccccc4s3)cccc2c1` [Compound 19d, N-(3-(Naphthalen-1-yl)Propyl)Benzo[d]Thiazol-2-Amine] displayed a melting point of 134 to 137 °C. For the same molecule, in data set [1] (setting [2]), the inhibition at 3 µM is above 80%. Also, the IC50 in data set [1] (0.1 to 3 µM, 24 h) was 0.399 µM.
For `COc1ccc(CCCNc2nc3ccccc3o2)cc1` [Compound 23b, N-(3-(4-Methoxyphenyl)Propyl)Benzo[d]Oxazol-2-Amine], the melting point lay in the range of 85 to 87 °C. In addition, the inhibition at 3 µM in data set [1] (setting [2]) was 79%.
In the same order, the values of `O=C(CCc1ccc2ccccc2c1)Nc1nc2ccccc2o1` [Compound 5c, N-(Benzo[d]Oxazol-2-yl)-3-(Naphthalen-2-yl)Propanamide] are 49 to 51 °C and 49%.
The molecule `COc1ccc(COC(=O)Nc2nc3ccccc3s2)cc1` [Compound 16a, 4-Methoxybenzyl Benzo[d]Thiazol-2-ylcarbamate] had a melting point of 141 to 143 °C. In data set [1] (setting [2]), the inhibition at 3 µM is 15%.
`COc1ccc(CCC(=O)Nc2nc3ccccc3s2)cc1` [Compound 11, N-(Benzo[d]Thiazol-2-yl)-3-(4-Methoxyphenyl)Propanamide] had a melting point of 172 to 174 °C. For the same molecule, in data set [1] (setting [2]), the inhibition at 3 µM was above 80%. Moreover, the IC50 in data set [1] (0.1 to 3 µM, 24 h) worked out at 0.916 µM.
As for `c1ccc2c(OCCNc3nc4ccccc4s3)cccc2c1` [Compound 25b, N-(2-(Naphthalen-1-yloxy)Ethyl)Benzo[d]Thiazol-2-Amine], the melting point fell in the range of 170 to 173 °C. Moreover, the inhibition at 3 µM in data set [1] (setting [2]) was determined as 57%.
On to `c1ccc(CCCNc2nc3ccccc3s2)cc1` [Compound 19b, N-(3-Phenylpropyl)Benzo[d]Thiazol-2-Amine], for which the melting point was 99 to 102 °C. Further, the inhibition at 3 µM in data set [1] (setting [2]) was above 80%. The IC50 in data set [1] (0.1 to 3 µM, 24 h) was 0.177 µM.
Turning to `O=C(CCCc1ccc2ccccc2c1)Nc1nc2ccccc2o1` [Compound 5d, N-(Benzo[d]Oxazol-2-yl)-4-(Naphthalen-2-yl)Butanamide], the melting point fell in the range of 52 to 55 °C. In data set [1] (setting [2]), the inhibition at 3 µM came out at 73%.
Taken in the same sequence, the figures for `O=C(Nc1nc2ccccc2s1)OCc1ccc2ccccc2c1` [Compound 16b, Naphthalen-2-ylmethyl Benzo[d]Thiazol-2-ylcarbamate] were 209 to 211 °C and 39%.
Consider `COC(CCc1ccc2ccccc2c1)Nc1nc2ccccc2s1` (centres unmarked) [Compound 18a, N-(1-Methoxy-3-(Naphthalen-2-yl)Propyl)Benzo[d]Thiazol-2-Amine], for which the inhibition at 3 µM in data set [1] (setting [2]) was 46%.
As for `COC(CCc1ccccc1)Nc1nc2ccccc2s1` (centres unmarked) [Compound 18b, N-(1-Methoxy-3-Phenylpropyl)Benzo[d]Thiazol-2-Amine], in data set [1] (setting [2]), the inhibition at 3 µM is 0%.
In turn, `O=C(NCCCc1ccc2ccccc2c1)c1nc2ccccc2s1` [Compound 14, N-(3-(Naphthalen-2-yl)Propyl)Benzo[d]Thiazole-2-Carboxamide] returned a melting point of 48 to 50 °C. Also, the inhibition at 3 µM in data set [1] (setting [2]) worked out at 64%.
In turn, `c1ccc2c(OCCNc3nc4ccccc4o3)cccc2c1` [Compound 23d, N-(2-(Naphthalen-1-yloxy)Ethyl)Benzo[d]Oxazol-2-Amine] yielded a melting point of 164 to 166 °C. Also, in data set [1] (setting [2]), the inhibition at 3 µM came to 45%.
On to `FC(F)(F)Oc1ccc2nc(NCCCc3ccc4ccccc4c3)sc2c1` [Compound 19g, N-(3-(Naphthalen-2-yl)Propyl)-6-(Trifluoromethoxy)Benzo[d]Thiazol-2-Amine], for which the melting point lay in the range of 150 to 152 °C. In data set [1] (3 μM, 1 nM IL-1β plus 5 μM forskolin, 24 h, listed as 19), the “% Inhibition (at 3 μM) of PGE2 generation” value is “inactive”. In data set [1] (setting [2]), the inhibition at 3 µM stood at 0%.
In turn, `c1ccc2cc(CCCNc3nc4ccccc4o3)ccc2c1` [Compound 23a, N-(3-(Naphthalen-2-yl)Propyl)Benzo[d]Oxazol-2-Amine] displayed a melting point of 128 to 130 °C. The inhibition at 3 µM in data set [1] (setting [2]) was above 80%. The IC50 in data set [1] (0.1 to 3 µM, 24 h) is 0.336 µM.
In turn, `O=C(CCCc1ccc2ccccc2c1)Nc1nc2ccccc2[nH]1` [Compound 5f, N-(1H-Benzo[d]Imidazol-2-yl)-4-(Naphthalen-2-yl)Butanamide] registered a melting point of 56 to 58 °C. The inhibition at 3 µM in data set [1] (setting [2]) stood at 66%.
Taken in the same sequence, the figures for `c1ccc2cc(OCCNc3nc4ccccc4s3)ccc2c1` [Compound 25a, N-(2-(Naphthalen-2-yloxy)Ethyl)Benzo[d]Thiazol-2-Amine] were 170 to 172 °C and 63%.
Taken in the same sequence, the figures for `FC(F)(F)Oc1ccc2nc(NCCCc3cccc4ccccc34)sc2c1` [Compound 19h, N-(3-(Naphthalen-1-yl)Propyl)-6-(Trifluoromethoxy)Benzo[d]Thiazol-2-Amine] were 115 to 116 °C and 0%.
